In ChEMBL document CHEMBL3885861, “Open TG-GATES”:

Organism: Rattus norvegicus
Test: Open TG-GATES - Regimen: Single
Type: toxicity, organism-based, Sprague-Dawley
Set-up: regimen Single, gender Male, age 6 weeks
Conditions: in vivo, po, 10 mg/kg, route gavage, dose level Middle; for APTT / Bas / Eos / Fbg / Hb / Ht / Lym / MCH / MCHC / MCV / Mono / Neu / PT / Plat / RBC / Ret / WBC: tissue Blood; for KIDNEY_L / KIDNEY_R / KIDNEY_TOTAL: tissue Kidney; for LIVER: tissue Liver; for A/G / ALP / ALT / AST / BUN / CRE / Ca / Cl / DBIL / GLC / IP / K / LDH / Na / PL / RALB / TBIL / TC / TG / TP / gamma-GTP: tissue Plasma

## Cn1cnc([N+](=O)[O-])c1Sc1ncnc2nc[nH]c12 [AZATHIOPRINE]
3 h
  TERMINAL_BW: 192.8 g
  APTT: 22.9 s
  Bas: 0%
  Eos: 0.8%
  Fbg: 277.6 mg/dL
  Hb: 13.1 g/dL
  Ht: 39.1%
  Lym: 77.8%
  MCH: 21.6 pg
  MCHC: 33.7%
  MCV: 64.2 fL
  Mono: 2.2%
  Neu: 18%
  PT: 15.7 s
  Plat: 117.8 x10_4/uL
  RBC: 609.8 x10_4/ul
  Ret: 9.7%
  WBC: 65 x10_2/uL
  KIDNEY_L: 0.9 g
  KIDNEY_R: 0.9 g
  KIDNEY_TOTAL: 1.7 g
  LIVER: 8.5 g
  A/G: 1.1
  ALP: 1723.6 IU/L
  ALT: 47.6 IU/L
  AST: 78 IU/L
  BUN: 11.4 mg/dL
  CRE: 0.2 mg/dL
  Ca: 10.6 mg/dL
  Cl: 105.6 meq/L
  DBIL: 0.006 mg/dL
  GLC: 189.4 mg/dL
  IP: 9.1 mg/dL
  K: 4.1 meq/L
  LDH: 211.4 IU/L
  Na: 141.8 meq/L
  PL: 133.2 mg/dL
  RALB: 2.9 g/dL
  TBIL: 0.008 mg/dL
  TC: 77 mg/dL
  TG: 57.6 mg/dL
  TP: 5.5 g/dL
  gamma-GTP: 1 IU/L
6 h
  TERMINAL_BW: 189.2 g
  APTT: 21.4 s
  Bas: 0%
  Eos: 1%
  Fbg: 308.4 mg/dL
  Hb: 12.8 g/dL
  Ht: 39%
  Lym: 72%
  MCH: 21.4 pg
  MCHC: 32.9%
  MCV: 65.2 fL
  Mono: 2.8%
  Neu: 22.8%
  PT: 15.6 s
  Plat: 124.6 x10_4/uL
  RBC: 598.6 x10_4/ul
  Ret: 9.2%
  WBC: 73.6 x10_2/uL
  KIDNEY_L: 0.9 g
  KIDNEY_R: 0.9 g
  KIDNEY_TOTAL: 1.8 g
  LIVER: 8.1 g
  A/G: 1.2
  ALP: 1521.2 IU/L
  ALT: 41.8 IU/L
  AST: 70.6 IU/L
  BUN: 8.8 mg/dL
  CRE: 0.1 mg/dL
  Ca: 10.5 mg/dL
  Cl: 107.2 meq/L
  DBIL: 0.004 mg/dL
  GLC: 175.4 mg/dL
  IP: 9.1 mg/dL
  K: 4.6 meq/L
  LDH: 249.2 IU/L
  Na: 140.8 meq/L
  PL: 120.6 mg/dL
  RALB: 2.9 g/dL
  TBIL: 0.01 mg/dL
  TC: 72.6 mg/dL
  TG: 50.4 mg/dL
  TP: 5.4 g/dL
  gamma-GTP: 1 IU/L
9 h
  TERMINAL_BW: 183.9 g
  APTT: 22.4 s
  Bas: 0%
  Eos: 1%
  Fbg: 304.8 mg/dL
  Hb: 12.9 g/dL
  Ht: 38.9%
  Lym: 74.8%
  MCH: 21.8 pg
  MCHC: 33.2%
  MCV: 65.6 fL
  Mono: 2.4%
  Neu: 20.6%
  PT: 15.3 s
  Plat: 114.2 x10_4/uL
  RBC: 592.2 x10_4/ul
  Ret: 9%
  WBC: 83.3 x10_2/uL
  KIDNEY_L: 0.9 g
  KIDNEY_R: 0.9 g
  KIDNEY_TOTAL: 1.7 g
  LIVER: 7.7 g
  A/G: 1.2
  ALP: 1473.8 IU/L
  ALT: 32.4 IU/L
  AST: 64.8 IU/L
  BUN: 10 mg/dL
  CRE: 0.1 mg/dL
  Ca: 10.4 mg/dL
  Cl: 106.6 meq/L
  DBIL: 0 mg/dL
  GLC: 186 mg/dL
  IP: 9.6 mg/dL
  K: 4.2 meq/L
  LDH: 223.2 IU/L
  Na: 141 meq/L
  PL: 145 mg/dL
  RALB: 3.1 g/dL
  TBIL: 0.012 mg/dL
  TC: 85.2 mg/dL
  TG: 47 mg/dL
  TP: 5.6 g/dL
  gamma-GTP: 1 IU/L
24 h
  TERMINAL_BW: 199.9 g
  APTT: 20.9 s
  Bas: 0%
  Eos: 1%
  Fbg: 309 mg/dL
  Hb: 13.4 g/dL
  Ht: 39.3%
  Lym: 81.6%
  MCH: 21.7 pg
  MCHC: 34.1%
  MCV: 63.9 fL
  Mono: 2%
  Neu: 14.4%
  PT: 15.4 s
  Plat: 120.4 x10_4/uL
  RBC: 616.2 x10_4/ul
  Ret: 7.9%
  WBC: 54.7 x10_2/uL
  KIDNEY_L: 0.9 g
  KIDNEY_R: 0.9 g
  KIDNEY_TOTAL: 1.8 g
  LIVER: 9.2 g
  A/G: 1.3
  ALP: 1643.2 IU/L
  ALT: 40.2 IU/L
  AST: 71.4 IU/L
  BUN: 15.4 mg/dL
  CRE: 0.1 mg/dL
  Ca: 10.8 mg/dL
  Cl: 106.8 meq/L
  DBIL: 0.002 mg/dL
  GLC: 190.6 mg/dL
  IP: 7.6 mg/dL
  K: 4.1 meq/L
  LDH: 203.8 IU/L
  Na: 143 meq/L
  PL: 160.2 mg/dL
  RALB: 3.1 g/dL
  TBIL: 0.006 mg/dL
  TC: 90 mg/dL
  TG: 82.6 mg/dL
  TP: 5.6 g/dL
  gamma-GTP: 1 IU/L
